Reference: US8258114B2, “Modulation of glucose-6-phosphatase translocase expression” (Isis Pharmaceuticals, Inc., priority 2004, dated 2012)
Like-named read-outs stand apart in the source and are kept apart here.

How the values were obtained:
[1] = Plasma glucose levels of ZDF rats, alone or in combination with rosiglitazone (Table 16); type: in vivo, rat; settings: rosiglitazone alone 3 mg/kg daily
Method: (§1) Saline-injected animals served as a control treatment group.
Plasma glucose levels were evaluated at the beginning of the study (Wk 0), during the first week of treatment (Wk 1), during the third week of treatment (Wk 3), and during the fifth week of treatment (Wk 5).

[2] = Body weights of ZDF rats (Table 18); settings: for Body weight: rosiglitazone alone 3 mg/kg daily
[3] = Tissue weights (kidney, spleen, liver, fat pad) of ZDF rats (Table 20); settings: end of study, rosiglitazone alone
Method: Male Zucker fa/fa rats, about 17 to 18 weeks of age, purchased from Charles River Laboratories (Wilmington, Mass.), are maintained on a normal rodent diet. Animals are placed into treatment groups of 8 animals each. One treatment group was dosed subcutaneously twice weekly with 12.5 mg/kg of ISIS 366228 (SEQ ID NO: 203). Another treatment group was dosed twice weekly with 25 mg/kg of ISIS 366228. Other treatment groups were dosed with 12.5 mg/kg or 25 mg/kg ISIS 366228 twice weekly in combination with daily 3 mg/kg doses of rosiglitazone (Rosi) administered in powdered food. Another treatment group received the food-administered daily doses of 3 mg/kg of rosiglitazone alone. Saline-injected animals served as a control treatment group.
Tissue weights were also determined at the end of the study.

[4] = Liver transaminases ALT and AST in ZDF rats; settings: week 5
Method: (§2) Male Zucker fa/fa rats, about 17 to 18 weeks of age, purchased from Charles River Laboratories (Wilmington, Mass.), are maintained on a normal rodent diet. Animals are placed into treatment groups of 8 animals each. […] Another treatment group received the food-administered daily doses of 3 mg/kg of rosiglitazone alone. Saline-injected animals served as a control treatment group.
The liver transaminases, ALT and AST, were measured throughout the study.

[5] = tested on: rat glucose-6-phosphatase translocase mRNA; assay: Reduction of glucose-6-phosphatase translocase mRNA in liver or kidney of ZDF rats (Table 15); type: in vivo; settings: Rattus norvegicus, rosiglitazone alone 3 mg/kg daily in food
Method: Saline-injected animals served as a control treatment group. At the end of the treatment period, animals were sacrificed and target reduction in liver and kidney were measured by real-time PCR as described in other examples herein. […] For example, the following primer-probe set was designed to hybridize to rat glucose-6-phosphatase translocase sequences cited in Table 1: Forward primer: [NT] (incorporated herein as SEQ ID NO: 339) Reverse primer: [NT] (incorporated herein as SEQ ID NO: 340) PCR probe: […] (incorporated herein as SEQ ID NO: 341), where FAM is the fluorescent dye and TAMRA is the quencher dye.

[6] = tested on: catalytic subunit of glucose-6-phosphatase (G6PC) mRNA; assay: Reduction of catalytic subunit of glucose-6-phosphatase (G6PC) mRNA in liver or kidney of ZDF rats (Table 15); type: in vivo, rat; settings: Rattus norvegicus, rosiglitazone alone 3 mg/kg daily in food
Method: as §1
At the end of the treatment period, animals were sacrificed and target reduction in liver and kidney were measured by real-time PCR as described in other examples herein. Also measured were reductions in the catalytic subunit of glucose-6-phosphatase (G6PC) using a primer-probe set designed to hybridize to that mRNA. For example, the following primer-probe set was designed to hybridize to rat glucose-6-phosphatase translocase sequences cited in Table 1:
Results for each treatment group are shown in Table 15 as the average percent reduction in glucose-6-phosphatase translocase levels or in G6PC as compared to saline treated control.

[7] = Body fat percentage by MRI in Zucker rats (Table 19); settings: for % Fat: MRI, rosiglitazone alone 3 mg/kg daily
Method: as §2
Also monitored throughout the study was body composition. Baseline body composition was measured by MRI prior to the start of treatment (BL). Body composition was also measured during week 3 (Wk 3) and during week 5 (Wk 5) of treatment.

aged Zucker fa/fa rats = assay: Oral glucose tolerance test in ZDF rats (Table 17); type: in vivo, rat; settings: week 3, rosiglitazone alone 3 mg/kg daily
Method: as §1
To further evaluate the effects of ISIS 366228 alone or in combination with rosiglitazone, oral glucose tolerance tests were performed during the third week of treatment. To provide a baseline glucose level, fasted blood glucose levels were measured before the challenge. Glucose was administered by oral gavage via an 18 gauge gavage needle at a dose of 1 g/kg. Plasma glucose levels were measured for 15, 30, 60, 90, and 120 minutes post-challenge, using a glucose analyzer (for example, an Ascencia Glucometer Elite XL, Bayer, Tarrytown, N.Y.).

[8] = Plasma lipids (cholesterol, triglycerides, free fatty acids) in ZDF rats (Table 21); type: in vivo, rat
Method: as §1
To further assess the physiological effects resulting from inhibition of target mRNA with antisense oligonucleotide alone or in combination with rosiglitazone, the rats were evaluated throughout the treatment period for plasma free fatty acids, plasma cholesterol, and plasma triglyceride levels. Free fatty acids, triglycerides and cholesterol were measured by routine clinical analyzer instruments (e.g. Olympus Clinical Analyzer, Melville, N.Y.). Glucose levels were measured using a glucose analyzer, for example a YSI glucose analyzer (YSI Scientific, Yellow Springs, Ohio).

Fat pad weight [3]: 9 grams
Kidney weight [3]: 4 grams
Liver weight [3]: 21 grams
Spleen weight [3]: 0.6 grams
body fat percentage (in words) [7]: resulted in increased body fat
% Fat ([7]; BL (baseline)): 24%
% Fat ([7]; Wk 3): 32%
% Fat ([7]; Wk 5): 36%
SMILES: CN(CCOc1ccc(CC2SC(=O)NC2=O)cc1)c1ccccn1 (stereo not shown) [Rosiglitazone, rosiglitazone, reference compound]
Plasma glucose ([1]; Wk 0): 570 mg/dL
Plasma glucose ([1]; Wk 1): 462 mg/dL
Plasma glucose ([1]; Wk 3): 487 mg/dL
Plasma glucose ([1]; Wk 5): 498 mg/dL
body weight (in words) [2]: associated with increased body weight
Body weight ([2]; Wk 0): 404 g
Body weight ([2]; Wk 1): 422 g
Body weight ([2]; Wk 2): 444 g
Body weight ([2]; Wk 3): 453 g
Body weight ([2]; Wk 4): 465 g
liver transaminases ALT and AST (in words) [4]: reductions in levels of these indicators of liver function
inhibition at 3 mg/kg ([5]; read-out: % Inhibition of glucose-6-phosphatase translocase, Kidney): 0%
inhibition at 3 mg/kg ([5]; read-out: % Inhibition of glucose-6-phosphatase translocase, Liver): 46%
inhibition at 3 mg/kg ([6]; read-out: % Inhibition of G6PC, Kidney): 5%
inhibition at 3 mg/kg ([6]; read-out: % Inhibition of G6PC, Liver): 63%
plasma glucose, OGTT (aged Zucker fa/fa rats; 0 min (fasted)): 251 mg/dL
plasma glucose, OGTT (aged Zucker fa/fa rats; 15 min): 429 mg/dL
plasma glucose, OGTT (aged Zucker fa/fa rats; 30 min): 490 mg/dL
plasma glucose, OGTT (aged Zucker fa/fa rats; 60 min): 417 mg/dL
plasma glucose, OGTT (aged Zucker fa/fa rats; 90 min): 409 mg/dL
plasma glucose, OGTT (aged Zucker fa/fa rats; 120 min): 384 mg/dL
plasma cholesterol (CHOL) ([8]; Wk 0, rosiglitazone alone): 202 mg/dL
plasma triglycerides (TRIG) ([8]; Wk 0, rosiglitazone alone): 478 mg/dL
plasma cholesterol (CHOL) ([8]; Wk 1, rosiglitazone alone): 217 mg/dL
plasma triglycerides (TRIG) ([8]; Wk 1, rosiglitazone alone): 300 mg/dL
plasma cholesterol (CHOL) ([8]; Wk 3, rosiglitazone alone): 220 mg/dL
plasma triglycerides (TRIG) ([8]; Wk 3, rosiglitazone alone): 327 mg/dL
plasma cholesterol (CHOL) ([8]; Wk 5, rosiglitazone alone): 234 mg/dL
plasma triglycerides (TRIG) ([8]; Wk 5, rosiglitazone alone): 384 mg/dL
